Like-named read-outs stand apart in the source and are kept apart here.
Assays:
freshly-cut apple slices = assay: Anti-browning assay of freshly-cut apple slices; design: species or system Malus pumila Miller; settings: for L* value change (ΔL*): 48 h storage time point; for inhibition at 5000 µM: Malus pumila, read-out: inhibition of apple slice browning (relative browning intensity) compared to control
Procedure: Apples (Malus pumila Miller) of similar maturity were purchased from a local market (Emart24®, Busan, Republic of Korea). The apples were cut into small equal-sized pieces (W × D × H, 1.5 ± 0.1 cm × 1.5 ± 0.1 cm × 0.3 ± 0.05 cm). Three apple slices were placed in glass dishes with a diameter of 5 cm.
(§1) The apple slice dishes were placed in an incubator maintained at 20 °C. Kojic acid and PTU were used as positive controls. All samples, except PTU, were prepared as aqueous solutions. PTU test samples were prepared in a DMSO solution as it is only soluble in water at very low concentrations.
At five time points (0, 12, 24, 36, and 48 h), apple slices were photographed using a camera (iPhone 11), and browning colors (a*, b*, and L*) were measured using a CR-10 spectrophotometer (Konica Minolta Sensing, Inc., Osaka, Japan). In the spectrophotometer, the colors were described by a* (redness and greenness), b* (yellowness and blueness), and L* (lightness) values according to the Commission Internationale de l’Eclairage (CIE) color system. The overall color difference (ΔE) was calculated using the following formula: (ΔE)^2 = (a − ainitial)^2 + (b − binitial)^2 + (L − Linitial)^2. In addition, based on the photographs, the relative browning intensities were calculated using CS analyzer 3.2 image analysis software.

[1] = Water solubility (statement); format: physicochemical
Procedure: as §1

[2] = ABTS radical cation scavenging assay; settings: 100 μM test samples
Procedure: The ABTS radical cation-scavenging activities of analogs 1–10 were investigated according to a previously described protocol with minor modifications. Briefly, to prepare a test solution for the ABTS radical cation scavenging activity, potassium persulfate aqueous solution (10 mL, 2.45 mM) was mixed with ABTS aqueous solution (10 mL, 7 mM) and left for 12 h at room temperature in the dark until the absorbance remained constant. Prior to the ABTS radical cation scavenging assay experiments, the absorbance at 734 nm was adjusted to 0.70 ± 0.02 by diluting the ABTS radical cation solution with water. An aliquot (10 µL) of 1–10 or Trolox (the positive reference material) at 100 µM was mixed with the ABTS radical cation solution (90 µL) in each well of a 96-well plate and incubated for 10 min at ambient temperature in the dark. The optical density of each well was measured at 734 nm using a VersaMax® microplate reader. All experiments were performed independently 3 times.
The antioxidant potential of 1–10 was investigated using the ABTS radical cation scavenging technique. ABTS can be easily oxidized to the corresponding radical cation by oxidants such as potassium persulfate. Because of the correlation between melanogenesis and antioxidant activity, the ABTS radical-scavenging ability of 1–10 was examined. […]

[3] = In vitro ROS scavenging assay (SIN-1, DCFH-DA); settings: 40 μM, ROS enhanced by SIN-1
Procedure: At emission and excitation wavelengths of 535 and 485 nm, fluorescence intensity was measured using a fluorescence microplate reader (Berthold Technologies GmbH & Co., Wien, Austria).
Hydrolyzed DCFH reacts with ROS to produce the fluorescent substance dichlorofluorescein (DCF). The ROS-scavenging effects of the analogs were determined by measuring the emitted fluorescence. The in vitro ROS-scavenging effects were measured using 40 μM test samples.

[4] = DPPH radical scavenging assay; settings: 1 mM test samples, 0.5 h
Procedure: The DPPH radical scavenging activities of analogs 1–10 were evaluated according to a previously described protocol to examine the antioxidant effects of analogs 1–10. Briefly, an aliquot (180 µL) of DPPH methanol solution (0.2 mM) was mixed with a 2-MBI analogs’ DMSO (dimethyl sulfoxide) solution in each well of a 96-well plate, and the mixture was left in the dark for 0.5 h at room temperature. The optical density of each well was analyzed using a microplate reader (VersaMax®, Molecular Devices, Sunnyvale, CA, USA).
As the antioxidant ability of a compound may be involved in the inhibition of melanogenesis, the antioxidant effects of analogs 1–10 on DPPH radicals were explored. Vitamin C (L-ascorbic acid), a strong antioxidant, was used as the positive control. After mixing the test sample and DPPH solutions and standing at room temperature in the dark for 0.5 h, the absorbances of the mixed samples were measured at 517 nm using 1 mM test samples.

HEK-293 cells = assay: Cell viability (EZ-Cytox) assay in HEK-293 cells; format: cell-based, human; settings: 40 μM (maximum concentration), 24 h
Procedure: HEK-293 cells were obtained from American Type Culture Collection (ATCC; Manassas, VA, USA). Trypsin, streptomycin, fetal bovine serum (FBS), phosphate-buffered saline (PBS), penicillin, and Dulbecco’s modified Eagle’s medium (DMEM) for HEK-293 cell culture were purchased from Thermo Fisher Scientific (Carlsbad, CA, USA). HEK-293 cells were cultured in a DMEM solution containing penicillin (100 IU/mL), 10% heat-inactivated FBS, and streptomycin (100 µg/mL) in a 5% CO2 environment at 37 °C.
Cytotoxicity assays were performed using an EZ-Cytox assay (EZ-1000, DoGenBio, Seoul, Republic of Korea) in HEK-293 cells. Briefly, 96-well plates containing HEK-293 cells at a density of 1 × 10^4 cells per well were cultured in a 5% CO2 environment at 37 °C for 24 h. After 20 h, cells were treated with 2-MBI analogs 1−10 at 4 different concentrations (final concentration: 0, 2.5, 10, and 40 µM) and incubated for 24 h at 37 °C in a 5% CO2 environment. Then, 10 µL aliquot of the EZ-Cytox solution was added to each well. After 2 h incubation at 37 °C, the absorbance of each well was measured using a microplate reader (VersaMax®; Molecular Devices) at 450 nm.

mushroom tyrosinase [5] = molecular target: T1, mushroom tyrosinase (Agaricus bisporus, UniProt C7FF04); assay: Mushroom tyrosinase inhibitory assay, diphenolase activity (L-dopa substrate); format: biochemical; settings: vs kojic acid
Procedure: The effect of the analogs on enzyme inhibition was investigated in the presence of L-dopa and L-tyrosine. […] After incubating the assay mixture for 0.5 h at 37 °C, the amounts of dopachrome produced during the incubation time were evaluated by measuring the absorbances of each well at 475 nm using a VersaMax^TM microplate reader (Molecular Devices, Sunnyvale, CA, USA).
Target sequence in this assay (C7FF04 2-392): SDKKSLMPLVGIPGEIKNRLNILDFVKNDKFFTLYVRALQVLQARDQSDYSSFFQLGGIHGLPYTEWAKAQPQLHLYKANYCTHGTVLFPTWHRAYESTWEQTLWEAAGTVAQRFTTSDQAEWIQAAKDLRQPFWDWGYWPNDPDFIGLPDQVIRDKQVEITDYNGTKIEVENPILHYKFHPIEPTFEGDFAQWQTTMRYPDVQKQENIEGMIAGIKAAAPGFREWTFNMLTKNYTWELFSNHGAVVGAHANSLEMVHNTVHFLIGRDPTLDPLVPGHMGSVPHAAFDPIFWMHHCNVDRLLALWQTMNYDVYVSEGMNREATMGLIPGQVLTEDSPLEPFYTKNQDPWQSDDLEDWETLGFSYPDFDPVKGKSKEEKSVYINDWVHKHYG

mushroom tyrosinase [6] = molecular target: T1, mushroom tyrosinase; assay: biochemical; settings: for mode of tyrosinase inhibition: Lineweaver–Burk plots, L-dopa
Procedure: Briefly, a dimethyl sulfoxide (DMSO) solution (10 µL) containing test analogs (final concentrations: 0, 5, 10, and 20 nM) was added to the wells of a 96-well plate containing mushroom tyrosinase (20 µL, 200 units/mL) and an aqueous solution (170 µL) consisting of L-dopa (final concentrations: 0.125, 0.25, 0.5, 1, 2, 4, and 8 mM) and phosphate buffer (final concentration: 14.7 mM, pH 6.5). The increase in the absorbance at 475 nm (ΔOD475/min) was measured using a VersaMax^TM microplate reader to determine the initial rate of dopachrome generation. The maximal velocity (Vmax) was determined from the y-axis intercept values of the Lineweaver–Burk plots obtained at seven different L-dopa concentrations. Dixon plots were obtained from Lineweaver–Burk plots for inhibitors by plotting the reciprocal of the reaction velocity against the inhibitor concentration.
Target sequence in this assay (C7FF04 1-392): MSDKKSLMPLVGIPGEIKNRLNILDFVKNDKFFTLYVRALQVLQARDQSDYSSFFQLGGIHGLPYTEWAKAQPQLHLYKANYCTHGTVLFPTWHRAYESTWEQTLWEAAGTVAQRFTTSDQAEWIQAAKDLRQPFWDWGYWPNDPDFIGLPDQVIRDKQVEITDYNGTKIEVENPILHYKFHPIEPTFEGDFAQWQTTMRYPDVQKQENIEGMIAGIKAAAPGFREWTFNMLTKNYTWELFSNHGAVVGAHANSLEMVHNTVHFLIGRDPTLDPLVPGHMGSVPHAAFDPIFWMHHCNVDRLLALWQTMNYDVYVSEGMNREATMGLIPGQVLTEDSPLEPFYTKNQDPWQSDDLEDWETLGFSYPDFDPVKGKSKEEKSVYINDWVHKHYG

[7] = 5 mM spray (analogs as sodium salts)
[8] = 5 mM spray every 12 h (analogs as sodium salts), 36 h storage, 20 °C

For `NC(=S)Nc1ccccc1` [PTU, phenylthiourea, reference compound], the “L* value change (ΔL*)” value (freshly-cut apple slices; [7]) was 3.4, the inhibition at 5000 µM (freshly-cut apple slices) was 21.9% and the water solubility [1] was “poorly soluble in water”.

With `Cc1c(C)c2c(c(C)c1O)CCC(C)(C(=O)O)O2` (stereo not drawn) [Trolox, reference compound] the “ABTS radical cation scavenging activity, inhibition” value [2] was 96% and the “in vitro ROS scavenging effect” value [3] was “greatly reduced”.

With `O=C1O[C@H]([C@@H](O)CO)C(O)=C1O` [Vitamin C, L-ascorbic acid] the “DPPH radical scavenging activity, inhibition” value [4] was 98%.

`Sc1nc2ccccc2[nH]1` [analog 1, 1H-Benzo[d]imidazole-2-thiol] showed an inhibition at 5000 µM (freshly-cut apple slices) of 28.5 to 36.1%.

For `Cc1cc2nc(S)[nH]c2cc1C` [analog 3, 5,6-Dimethyl-1H-benzo[d]imidazole-2-thiol], the “cytotoxicity in HEK-293 cells” value (HEK-293 cells) was “weakly”.

In the case of `Sc1nc2cc(Cl)ccc2[nH]1` [analog 4, 5-Chloro-1H-benzo[d]imidazole-2-thiol], the “in vitro ROS scavenging effect” value [3] is reported as “most potently reduced”.

With `COc1ccc2[nH]c(S)nc2c1` [analog 5, 5-Methoxy-1H-benzo[d]imidazole-2-thiol] the “L* value change (ΔL*)” value (freshly-cut apple slices; [7]) was 8.2.

In the case of `O=C(c1ccccc1)c1ccc2[nH]c(S)nc2c1` [analog 6, (2-Mercapto-1H-benzo[d]imidazol-5-yl)(phenyl)methanone], the “fold more potent than kojic acid, diphenolase activity” value (mushroom tyrosinase [5]) is reported as 970 fold, the Ki (mushroom tyrosinase [6]) is reported as 8.6 nM and the “mode of tyrosinase inhibition” value (mushroom tyrosinase [6]) is reported as “competitive”. The “cytotoxicity in HEK-293 cells” value (HEK-293 cells) was “moderately cytotoxic”.

In the case of `O=[N+]([O-])c1ccc2[nH]c(S)nc2c1` [analog 7, 5-Nitro-1H-benzo[d]imidazole-2-thiol], the “L* value change (ΔL*)” value (freshly-cut apple slices; [7]) is reported as 1.3.

In the case of `Cc1cccc2[nH]c(S)nc12` [analog 9, 4-Methyl-1H-benzo[d]imidazole-2-thiol], the “ABTS radical cation scavenging activity, inhibition” value [2] is reported as 90% and the inhibition at 5000 µM (freshly-cut apple slices; [8]) is reported as 28.5 to 36.1%.

In the case of `N#Cc1ccc2[nH]c(S)nc2c1` [analog 10, 2-Mercapto-1H-benzo[d]imidazole-5-carbonitrile], the Ki (mushroom tyrosinase [6]) is reported as 14.8 nM, the “mode of tyrosinase inhibition” value (mushroom tyrosinase [6]) is reported as “competitive” and the “L* value change (ΔL*)” value (freshly-cut apple slices; [7]) is reported as 3.1. The “overall color difference (ΔE) of apple slices” value (freshly-cut apple slices; 5 mM spray (analogs as sodium salts), over 48 h storage) was “lowest increase in ΔE” and the inhibition at 5000 µM (freshly-cut apple slices; [8]) was 28.5 to 36.1%.

For `O=c1cc(CO)occ1O` [kojic acid, reference compound], the “L* value change (ΔL*)” value (freshly-cut apple slices; [7]) was 6.4 and the inhibition at 5000 µM (freshly-cut apple slices; [8]) was 7%.
